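Tested at 5 concentrations; 48 h exposure; 96-well plates; endpoints linearly interpolated, else capped at highest concentration. TGI marks complete inhibition of growth.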
Tests used:
Assay in all cases: DTP human tumour cell line panel, 48 h
A549 NSCLC = test system: A549 NSCLC
ACHN renal = test system: ACHN renal
IGROV1 ovarian = test system: IGROV1 ovarian
M14 melanoma = test system: M14 melanoma
MCF7 breast = test system: MCF7 breast
NCI-H23 lung = test system: NCI-H23 lung
OVCAR-5 ovarian = test system: OVCAR-5 ovarian
SF-268 CNS = test system: SF-268 CNS
SK-OV-3 ovarian = test system: SK-OV-3 ovarian
SN12C renal = test system: SN12C renal
U251 CNS = test system: U251 CNS
HT29 colon = test system: HT29 colon

SMILES	TGI (A549 NSCLC)	TGI (ACHN renal)	TGI (IGROV1 ovarian)	TGI (M14 melanoma)	TGI (MCF7 breast)	TGI (NCI-H23 lung)	TGI (OVCAR-5 ovarian)	TGI (SF-268 CNS)	TGI (SK-OV-3 ovarian)	TGI (SN12C renal)	TGI (U251 CNS)	TGI (HT29 colon)
c1ccc2cc3c(cc2c1)nc1ccccn13	> 100 µM	> 100 µM	> 100 µM	> 100 µM	> 100 µM	> 100 µM	> 100 µM	> 100 µM	> 100 µM	> 100 µM	> 100 µM	
COc1ccccc1CNC(=O)[C@H](Cc1ccc(O)cn1)NC(C)=O	> 100 µM	> 100 µM	> 100 µM	> 100 µM	> 100 µM	> 100 µM	> 100 µM	> 100 µM	> 100 µM	> 100 µM	> 100 µM	> 100 µM
C=CCn1c(-c2ccc(-c3cs/c(=N\N=O)n3CC=C)cc2)cs/c1=N\N=O	> 100 µM	> 100 µM	> 100 µM	> 100 µM	> 100 µM	> 100 µM	> 100 µM	> 100 µM	> 100 µM	> 100 µM	> 100 µM	> 100 µM
C[C@]12CC[C@H](O)CC1=CC[C@@H]1C2CC[C@]2(C)Nc3c(cnn3-c3ccc(F)cc3)CC12 (stereo not given in full)	> 100 µM	> 100 µM	> 100 µM	> 100 µM	> 100 µM	> 100 µM	> 100 µM	> 100 µM	57.3 µM	> 100 µM	> 100 µM	> 100 µM
CC(C)C(NCc1c(O)ccc2c(-c3ccccc3)cc(=O)oc12)C(=O)O (stereo not given)	> 100 µM	> 100 µM	> 100 µM	> 100 µM	> 100 µM	> 100 µM	> 100 µM	> 100 µM	> 100 µM	> 100 µM	> 100 µM	> 100 µM
CCc1n[nH]c(=O)n1CCO	> 100 µM	> 100 µM	> 100 µM	> 100 µM	> 100 µM	> 100 µM	> 100 µM		> 100 µM	> 100 µM	> 100 µM	> 100 µM
COc1ccc(CCNC(=O)[C@H]2CCCC[C@@H]2CCO)cc1OC	> 100 µM	> 100 µM	> 100 µM	> 100 µM	> 100 µM	> 100 µM	> 100 µM	> 100 µM	> 100 µM	> 100 µM	> 100 µM	> 100 µM
N#Cc1sc2c(c1O)c(=O)n(-c1ccccc1)c(=S)n2-c1ccccc1	> 100 µM	> 100 µM	> 100 µM	> 100 µM	> 100 µM	> 100 µM	> 100 µM	> 100 µM		> 100 µM	> 100 µM	> 100 µM
COc1ccc2c(c1)CCC(OS(=O)(=O)CC13CCC(CC1=O)C3(C)C)C2=O (stereo not given)	78 µM	> 100 µM		> 100 µM		36.1 µM	> 100 µM	59.8 µM		35.2 µM	43.1 µM	
CCOC(=O)c1c(N2CCCC2)[nH]c(=O)c(C(c2cccs2)c2c(O)c(C(=O)OCC)c(N3CCCC3)[nH]c2=O)c1O	> 100 µM	> 100 µM		> 100 µM	> 100 µM	> 100 µM	> 100 µM	> 100 µM	> 100 µM	> 100 µM	> 100 µM	> 100 µM
CN(C)Cc1cc(N=Nc2ccc(Cl)cc2)ccc1OC(=O)c1ccccc1	13.6 µM	28.7 µM	25.9 µM		28.7 µM	34.4 µM	30.6 µM	59.9 µM		28.2 µM	29.4 µM	27.5 µM
CC(CCCOC(c1ccccc1)(c1ccccc1)c1ccccc1)OC(=O)Nc1ccccc1 (stereo not given)	23.2 µM	26.5 µM	30 µM	27.2 µM		21.7 µM	26.8 µM	25.9 µM	27.2 µM	24.4 µM	26.8 µM	25.8 µM
Cc1cccc2c(=O)c3cccc([C@@H](C)C(=O)O)c3oc12	> 100 µM	> 100 µM	> 100 µM	> 100 µM		> 100 µM		> 100 µM	> 100 µM	> 100 µM	> 100 µM	> 100 µM
COc1ccc(CCc2nccn2C)cc1OC	> 100 µM	> 100 µM	> 100 µM	> 100 µM	> 100 µM	> 100 µM	> 100 µM	> 100 µM	> 100 µM	> 100 µM		> 100 µM
CC(=O)C1=CCC2c3[nH]c4ccccc4c3CCN2C1 (stereo not given)	> 100 µM	> 100 µM	> 100 µM	> 100 µM		> 100 µM	> 100 µM	> 100 µM	75.6 µM	> 100 µM	> 100 µM	> 100 µM
CCCCNC(=S)/N=C/c1c(O)c2ccccc2[nH]c1=O	> 10 µM	> 10 µM	> 10 µM	> 10 µM	> 10 µM	> 10 µM	> 10 µM	> 10 µM		> 10 µM	> 10 µM	> 10 µM
COc1ccc(NC2CC(C)N(C(=O)c3ccccc3)O2)cc1 (stereo not given)	> 10 µM	> 10 µM	> 10 µM	> 10 µM	> 10 µM	> 10 µM	> 10 µM	> 10 µM	> 10 µM	> 10 µM		> 10 µM
Cc1ccc(S(=O)(=O)c2c(N)n(CCN(C)C)c3nc4ccccc4nc23)cc1	> 100 µM	> 100 µM	> 100 µM	> 100 µM		> 100 µM	> 100 µM	> 100 µM	> 100 µM	> 100 µM	> 100 µM	> 100 µM
OC(C/C=N/Nc1ccccc1)(C(F)(F)Cl)C(F)(F)Cl	> 10 µM	> 10 µM	> 10 µM	> 10 µM	> 10 µM	> 10 µM		> 10 µM	> 10 µM	> 10 µM	> 10 µM	> 10 µM
O=C1Oc2cc3c(c4cccc1c24)O[C@H](c1ccccc1)[C@@H](c1ccccc1)[C@@H]3c1ccc(Cl)cc1		> 100 µM	77.4 µM	> 100 µM	> 100 µM	> 100 µM	> 100 µM	> 100 µM	> 100 µM	> 100 µM	50.1 µM	> 100 µM
